Reference: the OligoGym collection
Oligonucleotides are given in HELM: sugar(base)linkage, 5' to 3'; d 2'-deoxyribose, r ribose, m 2'-O-methylribose, p phosphate. ss, as = sense and antisense strand
Also: test concentration or dose not given here.

These substances were tested against UBE2D3 (assay: reporter assay of Huesken 2005). Settings: siRNA.
For “RNA1{r(G)p.r(U)p.r(U)p.r(U)p.r(C)p.r(A)p.r(U)p.r(U)p.r(G)p.r(G)p.r(C)p.r(A)p.r(A)p.r(G)p.r(C)p.r(C)p.r(A)p.r(C)p.r(A)p.d(T)p.d(T)}|RNA2{r(U)p.r(G)p.r(U)p.r(G)p.r(G)p.r(C)p.r(U)p.r(U)p.r(G)p.r(C)p.r(C)p.r(A)p.r(A)p.r(U)p.r(G)p.r(A)p.r(A)p.r(A)p.r(C)p.d(A)p.d(T)}$$$RNA1{StrandType:ss}|RNA2{StrandType:as}$”, the normalised inhibition (eCFP-eYFP dual reporter) was 94.9%. “RNA1{r(G)p.r(A)p.r(U)p.r(G)p.r(A)p.r(U)p.r(A)p.r(U)p.r(G)p.r(U)p.r(U)p.r(U)p.r(C)p.r(A)p.r(U)p.r(U)p.r(G)p.r(G)p.r(C)p.d(T)p.d(T)}|RNA2{r(G)p.r(C)p.r(C)p.r(A)p.r(A)p.r(U)p.r(G)p.r(A)p.r(A)p.r(A)p.r(C)p.r(A)p.r(U)p.r(A)p.r(U)p.r(C)p.r(A)p.r(U)p.r(C)p.d(C)p.d(C)}$$$RNA1{StrandType:ss}|RNA2{StrandType:as}$” showed a normalised inhibition (eCFP-eYFP dual reporter) of 66.1%. “RNA1{r(C)p.r(A)p.r(U)p.r(U)p.r(G)p.r(G)p.r(C)p.r(A)p.r(A)p.r(G)p.r(C)p.r(C)p.r(A)p.r(C)p.r(A)p.r(A)p.r(U)p.r(U)p.r(A)p.d(T)p.d(T)}|RNA2{r(U)p.r(A)p.r(A)p.r(U)p.r(U)p.r(G)p.r(U)p.r(G)p.r(G)p.r(C)p.r(U)p.r(U)p.r(G)p.r(C)p.r(C)p.r(A)p.r(A)p.r(U)p.r(G)p.d(A)p.d(A)}$$$RNA1{StrandType:ss}|RNA2{StrandType:as}$” was tested, and the normalised inhibition (eCFP-eYFP dual reporter) was 100%. Work on “RNA1{r(A)p.r(U)p.r(U)p.r(U)p.r(A)p.r(C)p.r(A)p.r(A)p.r(C)p.r(A)p.r(A)p.r(G)p.r(A)p.r(A)p.r(U)p.r(U)p.r(U)p.r(A)p.r(U)p.d(T)p.d(T)}|RNA2{r(A)p.r(U)p.r(A)p.r(A)p.r(A)p.r(U)p.r(U)p.r(C)p.r(U)p.r(U)p.r(G)p.r(U)p.r(U)p.r(G)p.r(U)p.r(A)p.r(A)p.r(A)p.r(U)p.d(G)p.d(C)}$$$RNA1{StrandType:ss}|RNA2{StrandType:as}$” yielded a normalised inhibition (eCFP-eYFP dual reporter) of 74.4%. “RNA1{r(A)p.r(U)p.r(G)p.r(U)p.r(U)p.r(U)p.r(C)p.r(A)p.r(U)p.r(U)p.r(G)p.r(G)p.r(C)p.r(A)p.r(A)p.r(G)p.r(C)p.r(C)p.r(A)p.d(T)p.d(T)}|RNA2{r(U)p.r(G)p.r(G)p.r(C)p.r(U)p.r(U)p.r(G)p.r(C)p.r(C)p.r(A)p.r(A)p.r(U)p.r(G)p.r(A)p.r(A)p.r(A)p.r(C)p.r(A)p.r(U)p.d(A)p.d(T)}$$$RNA1{StrandType:ss}|RNA2{StrandType:as}$” was tested, and the normalised inhibition (eCFP-eYFP dual reporter) was 90.7%. In the case of “RNA1{r(U)p.r(A)p.r(A)p.r(G)p.r(A)p.r(U)p.r(C)p.r(A)p.r(C)p.r(A)p.r(G)p.r(U)p.r(G)p.r(G)p.r(U)p.r(C)p.r(G)p.r(C)p.r(C)p.d(T)p.d(T)}|RNA2{r(G)p.r(G)p.r(C)p.r(G)p.r(A)p.r(C)p.r(C)p.r(A)p.r(C)p.r(U)p.r(G)p.r(U)p.r(G)p.r(A)p.r(U)p.r(C)p.r(U)p.r(U)p.r(A)p.d(G)p.d(A)}$$$RNA1{StrandType:ss}|RNA2{StrandType:as}$”, the normalised inhibition (eCFP-eYFP dual reporter) is reported as 55.6%. “RNA1{r(A)p.r(C)p.r(A)p.r(A)p.r(U)p.r(U)p.r(C)p.r(A)p.r(U)p.r(U)p.r(U)p.r(U)p.r(C)p.r(C)p.r(U)p.r(A)p.r(C)p.r(A)p.r(G)p.d(T)p.d(T)}|RNA2{r(C)p.r(U)p.r(G)p.r(U)p.r(A)p.r(G)p.r(G)p.r(A)p.r(A)p.r(A)p.r(A)p.r(U)p.r(G)p.r(A)p.r(A)p.r(U)p.r(U)p.r(G)p.r(U)p.d(C)p.d(A)}$$$RNA1{StrandType:ss}|RNA2{StrandType:as}$” was tested, and the normalised inhibition (eCFP-eYFP dual reporter) was 76.2%. “RNA1{r(U)p.r(U)p.r(C)p.r(U)p.r(G)p.r(C)p.r(A)p.r(G)p.r(G)p.r(U)p.r(C)p.r(C)p.r(A)p.r(G)p.r(U)p.r(U)p.r(G)p.r(G)p.r(G)p.d(T)p.d(T)}|RNA2{r(C)p.r(C)p.r(C)p.r(A)p.r(A)p.r(C)p.r(U)p.r(G)p.r(G)p.r(A)p.r(C)p.r(C)p.r(U)p.r(G)p.r(C)p.r(A)p.r(G)p.r(A)p.r(A)p.d(C)p.d(A)}$$$RNA1{StrandType:ss}|RNA2{StrandType:as}$” showed a normalised inhibition (eCFP-eYFP dual reporter) of 50%. With “RNA1{r(A)p.r(U)p.r(C)p.r(A)p.r(U)p.r(C)p.r(C)p.r(A)p.r(A)p.r(A)p.r(U)p.r(A)p.r(U)p.r(U)p.r(A)p.r(A)p.r(C)p.r(A)p.r(G)p.d(T)p.d(T)}|RNA2{r(C)p.r(U)p.r(G)p.r(U)p.r(U)p.r(A)p.r(A)p.r(U)p.r(A)p.r(U)p.r(U)p.r(U)p.r(G)p.r(G)p.r(A)p.r(U)p.r(G)p.r(A)p.r(U)p.d(A)p.d(A)}$$$RNA1{StrandType:ss}|RNA2{StrandType:as}$” the normalised inhibition (eCFP-eYFP dual reporter) was 32%. “RNA1{r(A)p.r(U)p.r(U)p.r(A)p.r(U)p.r(G)p.r(G)p.r(G)p.r(A)p.r(C)p.r(C)p.r(U)p.r(A)p.r(A)p.r(U)p.r(G)p.r(A)p.r(C)p.r(A)p.d(T)p.d(T)}|RNA2{r(U)p.r(G)p.r(U)p.r(C)p.r(A)p.r(U)p.r(U)p.r(A)p.r(G)p.r(G)p.r(U)p.r(C)p.r(C)p.r(C)p.r(A)p.r(U)p.r(A)p.r(A)p.r(U)p.d(T)p.d(G)}$$$RNA1{StrandType:ss}|RNA2{StrandType:as}$” gave a normalised inhibition (eCFP-eYFP dual reporter) of 64.1%. Substance “RNA1{r(U)p.r(A)p.r(U)p.r(C)p.r(A)p.r(A)p.r(G)p.r(G)p.r(C)p.r(G)p.r(G)p.r(U)p.r(G)p.r(U)p.r(A)p.r(U)p.r(U)p.r(C)p.r(U)p.d(T)p.d(T)}|RNA2{r(A)p.r(G)p.r(A)p.r(A)p.r(U)p.r(A)p.r(C)p.r(A)p.r(C)p.r(C)p.r(G)p.r(C)p.r(C)p.r(U)p.r(U)p.r(G)p.r(A)p.r(U)p.r(A)p.d(T)p.d(G)}$$$RNA1{StrandType:ss}|RNA2{StrandType:as}$” has a normalised inhibition (eCFP-eYFP dual reporter) of 99.5%. “RNA1{r(G)p.r(A)p.r(C)p.r(A)p.r(A)p.r(U)p.r(U)p.r(C)p.r(A)p.r(U)p.r(U)p.r(U)p.r(U)p.r(C)p.r(C)p.r(U)p.r(A)p.r(C)p.r(A)p.d(T)p.d(T)}|RNA2{r(U)p.r(G)p.r(U)p.r(A)p.r(G)p.r(G)p.r(A)p.r(A)p.r(A)p.r(A)p.r(U)p.r(G)p.r(A)p.r(A)p.r(U)p.r(U)p.r(G)p.r(U)p.r(C)p.d(A)p.d(A)}$$$RNA1{StrandType:ss}|RNA2{StrandType:as}$” showed a normalised inhibition (eCFP-eYFP dual reporter) of 92.3%. For “RNA1{r(C)p.r(U)p.r(A)p.r(U)p.r(G)p.r(U)p.r(G)p.r(A)p.r(U)p.r(C)p.r(C)p.r(A)p.r(A)p.r(A)p.r(C)p.r(C)p.r(C)p.r(A)p.r(G)p.d(T)p.d(T)}|RNA2{r(C)p.r(U)p.r(G)p.r(G)p.r(G)p.r(U)p.r(U)p.r(U)p.r(G)p.r(G)p.r(A)p.r(U)p.r(C)p.r(A)p.r(C)p.r(A)p.r(U)p.r(A)p.r(G)p.d(C)p.d(A)}$$$RNA1{StrandType:ss}|RNA2{StrandType:as}$”, the normalised inhibition (eCFP-eYFP dual reporter) was 95.8%. Work on “RNA1{r(U)p.r(A)p.r(A)p.r(U)p.r(G)p.r(A)p.r(C)p.r(A)p.r(G)p.r(C)p.r(C)p.r(C)p.r(A)p.r(U)p.r(A)p.r(U)p.r(C)p.r(A)p.r(A)p.d(T)p.d(T)}|RNA2{r(U)p.r(U)p.r(G)p.r(A)p.r(U)p.r(A)p.r(U)p.r(G)p.r(G)p.r(G)p.r(C)p.r(U)p.r(G)p.r(U)p.r(C)p.r(A)p.r(U)p.r(U)p.r(A)p.d(G)p.d(G)}$$$RNA1{StrandType:ss}|RNA2{StrandType:as}$” yielded a normalised inhibition (eCFP-eYFP dual reporter) of 97.7%. With “RNA1{r(U)p.r(G)p.r(C)p.r(U)p.r(U)p.r(U)p.r(A)p.r(A)p.r(C)p.r(A)p.r(A)p.r(U)p.r(U)p.r(U)p.r(C)p.r(U)p.r(A)p.r(A)p.r(A)p.d(T)p.d(T)}|RNA2{r(U)p.r(U)p.r(U)p.r(A)p.r(G)p.r(A)p.r(A)p.r(A)p.r(U)p.r(U)p.r(G)p.r(U)p.r(U)p.r(A)p.r(A)p.r(A)p.r(G)p.r(C)p.r(A)p.d(G)p.d(G)}$$$RNA1{StrandType:ss}|RNA2{StrandType:as}$” the normalised inhibition (eCFP-eYFP dual reporter) was 92%. “RNA1{r(G)p.r(A)p.r(U)p.r(C)p.r(C)p.r(A)p.r(A)p.r(A)p.r(C)p.r(C)p.r(C)p.r(A)p.r(G)p.r(A)p.r(U)p.r(G)p.r(A)p.r(C)p.r(C)p.d(T)p.d(T)}|RNA2{r(G)p.r(G)p.r(U)p.r(C)p.r(A)p.r(U)p.r(C)p.r(U)p.r(G)p.r(G)p.r(G)p.r(U)p.r(U)p.r(U)p.r(G)p.r(G)p.r(A)p.r(U)p.r(C)p.d(A)p.d(C)}$$$RNA1{StrandType:ss}|RNA2{StrandType:as}$” was tested, and the normalised inhibition (eCFP-eYFP dual reporter) was 56.5%. “RNA1{r(U)p.r(C)p.r(C)p.r(A)p.r(U)p.r(U)p.r(U)p.r(G)p.r(U)p.r(U)p.r(C)p.r(A)p.r(C)p.r(U)p.r(G)p.r(C)p.r(U)p.r(A)p.r(U)p.d(T)p.d(T)}|RNA2{r(A)p.r(U)p.r(A)p.r(G)p.r(C)p.r(A)p.r(G)p.r(U)p.r(G)p.r(A)p.r(A)p.r(C)p.r(A)p.r(A)p.r(A)p.r(U)p.r(G)p.r(G)p.r(A)p.d(T)p.d(A)}$$$RNA1{StrandType:ss}|RNA2{StrandType:as}$” was tested, and the normalised inhibition (eCFP-eYFP dual reporter) was 98.4%. Work on “RNA1{r(C)p.r(A)p.r(G)p.r(U)p.r(A)p.r(A)p.r(U)p.r(G)p.r(G)p.r(C)p.r(A)p.r(G)p.r(C)p.r(A)p.r(U)p.r(U)p.r(U)p.r(G)p.r(U)p.d(T)p.d(T)}|RNA2{r(A)p.r(C)p.r(A)p.r(A)p.r(A)p.r(U)p.r(G)p.r(C)p.r(U)p.r(G)p.r(C)p.r(C)p.r(A)p.r(U)p.r(U)p.r(A)p.r(C)p.r(U)p.r(G)p.d(T)p.d(T)}$$$RNA1{StrandType:ss}|RNA2{StrandType:as}$” yielded a normalised inhibition (eCFP-eYFP dual reporter) of 97.4%. In the case of “RNA1{r(U)p.r(U)p.r(U)p.r(C)p.r(U)p.r(A)p.r(A)p.r(A)p.r(G)p.r(U)p.r(U)p.r(C)p.r(U)p.r(U)p.r(U)p.r(U)p.r(A)p.r(U)p.r(C)p.d(T)p.d(T)}|RNA2{r(G)p.r(A)p.r(U)p.r(A)p.r(A)p.r(A)p.r(A)p.r(G)p.r(A)p.r(A)p.r(C)p.r(U)p.r(U)p.r(U)p.r(A)p.r(G)p.r(A)p.r(A)p.r(A)p.d(T)p.d(T)}$$$RNA1{StrandType:ss}|RNA2{StrandType:as}$”, the normalised inhibition (eCFP-eYFP dual reporter) is reported as 30.6%. In the case of “RNA1{r(U)p.r(A)p.r(G)p.r(U)p.r(G)p.r(C)p.r(C)p.r(A)p.r(G)p.r(A)p.r(G)p.r(A)p.r(U)p.r(U)p.r(G)p.r(C)p.r(A)p.r(C)p.r(G)p.d(T)p.d(T)}|RNA2{r(C)p.r(G)p.r(U)p.r(G)p.r(C)p.r(A)p.r(A)p.r(U)p.r(C)p.r(U)p.r(C)p.r(U)p.r(G)p.r(G)p.r(C)p.r(A)p.r(C)p.r(U)p.r(A)p.d(G)p.d(G)}$$$RNA1{StrandType:ss}|RNA2{StrandType:as}$”, the normalised inhibition (eCFP-eYFP dual reporter) is reported as 62.4%.
